Tested on: Protease enzyme
Assay: Residual protease activity in liquid detergent formulation after storage at 37° C. (tetrapeptide substrate assay)
Type: biochemical
Conditions: activity determined at 40° C., TRIS pH 9, relative to t=0; for Residual activity after 2 weeks, 0.05% BHT / Residual activity after 4 weeks, 0.05% BHT: 'base' liquid detergent formulation + 0.06% by weight perfume component + 0.05% by weight BHT; for Residual activity after 2 weeks, 0.05% BHT / Residual activity after 2 weeks, No BHT: 2 weeks storage at 37° C.; for Residual activity after 4 weeks, 0.05% BHT / Residual activity after 4 weeks, No BHT: 4 weeks storage at 37° C.; for Residual activity after 2 weeks, No BHT / Residual activity after 4 weeks, No BHT: 'base' liquid detergent formulation + 0.06% by weight perfume component
Description: To various samples of this ‘base’ liquid formulation 0.06% by weight based on said formulation of several types of perfume component—as indicated in the tables below—were added such that, as a result, each sample contains a different type of perfume component. To other samples of this ‘base’ formulation not only 0.06% by weight of said perfume components but also 0.05% by weight BHT (2,6-di-tert-butyl hydroxy toluene) were added.
The residual activity of the protease enzyme in all thus-formed formulations after 2 weeks and 4 weeks storage at 37° C., was determined at 40° C. in a TRIS pH 9 buffer and using tetrapeptide as substrate. For this determination, the following protocol was used:
Samples of 70 mg of the tested liquid formulation were diluted in 10.00 ml MilliQ water. 10 μl of this solution was added to an assay of 205 μl containing 74.4 mM TRIS pH9 and 0.494 mM tetrapeptide (succinyl-Ala-Ala-Pro-Phe-p-Nitroanilide). The absorbance of the tested samples at a wavelength of 450 nm was measured for 15 minutes at 40° C., using a spectrophotometer. The absolute changes in absorbance as compared to the absorbance measured on a freshly prepared calibration sample were correlated to the measured activity of such freshly prepared sample. The measured protease enzyme activity is expressed as GU/ml.
The residual enzyme activity (expressed as %) is the enzyme activity after storage of the liquid formulation concerned divided by the enzyme activity measured at t=0.
Tables 1 and 2 show the effect of the addition of 0.05% by weight of BHT on the residual enzyme activity in ‘base’ liquid detergent formulations additionally containing 0.06% by weight of the indicated perfume components, after 2 weeks storage at 37° C. respectively 4 weeks storage at 37° C.

| Compound | Residual activity after 2 weeks, 0.05% BHT [%] | Residual activity after 4 weeks, 0.05% BHT [%] | Residual activity after 2 weeks, No BHT [%] | Residual activity after 4 weeks, No BHT [%] |
| --- | --- | --- | --- | --- |
| Octenal | 68 | 46 | 13 | 3 |
| CCC(=O)/C=C/C1C(C)=CCCC1(C)C (stereo not drawn) [Alpha methylionone] | 84 | 78 | 39 | 14 |
| CC(C)=C1CC[C@@H](C)CC1=O [Pulegone] | 82 | 76 | 45 | 16 |
| CC1=CCC(=C(C)C)CC1 [Terpinolene] | 85 | 79 | 51 | 17 |
| CC1=CC(C)C(C=O)CC1 (centres unmarked) [Zestover] | 82 | 72 | 16 | 5 |
| CCCCCCCCCCC=CC=O [Tridecyclenaldehyde] | 70 | 54 | 14 | 4 |
| Terpinegene G | 72 | 62 | 48 | 23 |
| CC(C=O)Cc1ccc(C(C)(C)C)cc1 (centres unmarked) [Lilial] | 80 | 68 | 39 | 9 |

Source: patent publication US7902138B2, “Liquid detergent composition” (The Sun Products Corporation, priority 2003, dated 2011)
